In patent publication US10526309B2, “Pan-TAM inhibitors and Mer/Axl dual inhibitors” (The University of North Carolina at Chapel Hill, priority 2015, dated 2020):
Read-outs that look alike come from different tables or passages of the source.

Key:
Format in all cases: biochemical
Mer = target: T1, Mer (Homo sapiens, UniProt Q12866); experiment: Mer kinase inhibition IC50; settings: read-out: Mer IC50
T1 sequence (Q12866 21-999): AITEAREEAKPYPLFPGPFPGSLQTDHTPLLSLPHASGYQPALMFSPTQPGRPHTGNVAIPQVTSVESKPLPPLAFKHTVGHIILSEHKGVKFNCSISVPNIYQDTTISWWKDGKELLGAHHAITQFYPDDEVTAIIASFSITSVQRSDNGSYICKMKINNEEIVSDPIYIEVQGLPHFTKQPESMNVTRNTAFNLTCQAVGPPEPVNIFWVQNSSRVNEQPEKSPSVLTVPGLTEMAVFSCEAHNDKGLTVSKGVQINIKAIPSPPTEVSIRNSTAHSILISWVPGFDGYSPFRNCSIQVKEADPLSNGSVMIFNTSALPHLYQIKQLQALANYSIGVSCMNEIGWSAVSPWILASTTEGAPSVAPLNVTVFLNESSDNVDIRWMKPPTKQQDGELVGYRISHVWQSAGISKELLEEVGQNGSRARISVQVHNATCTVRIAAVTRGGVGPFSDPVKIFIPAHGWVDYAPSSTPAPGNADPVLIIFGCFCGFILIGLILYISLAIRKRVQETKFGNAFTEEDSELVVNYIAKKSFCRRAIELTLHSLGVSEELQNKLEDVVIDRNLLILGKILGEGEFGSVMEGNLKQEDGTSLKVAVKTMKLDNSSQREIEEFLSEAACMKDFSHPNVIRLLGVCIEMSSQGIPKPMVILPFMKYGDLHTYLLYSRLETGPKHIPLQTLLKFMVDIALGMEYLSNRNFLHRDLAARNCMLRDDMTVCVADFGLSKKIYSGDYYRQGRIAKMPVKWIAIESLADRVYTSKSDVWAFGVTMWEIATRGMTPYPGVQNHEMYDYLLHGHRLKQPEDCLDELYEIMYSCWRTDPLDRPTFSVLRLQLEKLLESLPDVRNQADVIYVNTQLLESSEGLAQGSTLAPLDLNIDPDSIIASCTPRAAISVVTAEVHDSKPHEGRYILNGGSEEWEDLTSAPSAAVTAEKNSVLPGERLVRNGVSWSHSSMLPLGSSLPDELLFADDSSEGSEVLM

Axl = target: T2, Axl (Homo sapiens, UniProt P30530); experiment: Axl kinase inhibition IC50
T2 sequence (P30530 26-894): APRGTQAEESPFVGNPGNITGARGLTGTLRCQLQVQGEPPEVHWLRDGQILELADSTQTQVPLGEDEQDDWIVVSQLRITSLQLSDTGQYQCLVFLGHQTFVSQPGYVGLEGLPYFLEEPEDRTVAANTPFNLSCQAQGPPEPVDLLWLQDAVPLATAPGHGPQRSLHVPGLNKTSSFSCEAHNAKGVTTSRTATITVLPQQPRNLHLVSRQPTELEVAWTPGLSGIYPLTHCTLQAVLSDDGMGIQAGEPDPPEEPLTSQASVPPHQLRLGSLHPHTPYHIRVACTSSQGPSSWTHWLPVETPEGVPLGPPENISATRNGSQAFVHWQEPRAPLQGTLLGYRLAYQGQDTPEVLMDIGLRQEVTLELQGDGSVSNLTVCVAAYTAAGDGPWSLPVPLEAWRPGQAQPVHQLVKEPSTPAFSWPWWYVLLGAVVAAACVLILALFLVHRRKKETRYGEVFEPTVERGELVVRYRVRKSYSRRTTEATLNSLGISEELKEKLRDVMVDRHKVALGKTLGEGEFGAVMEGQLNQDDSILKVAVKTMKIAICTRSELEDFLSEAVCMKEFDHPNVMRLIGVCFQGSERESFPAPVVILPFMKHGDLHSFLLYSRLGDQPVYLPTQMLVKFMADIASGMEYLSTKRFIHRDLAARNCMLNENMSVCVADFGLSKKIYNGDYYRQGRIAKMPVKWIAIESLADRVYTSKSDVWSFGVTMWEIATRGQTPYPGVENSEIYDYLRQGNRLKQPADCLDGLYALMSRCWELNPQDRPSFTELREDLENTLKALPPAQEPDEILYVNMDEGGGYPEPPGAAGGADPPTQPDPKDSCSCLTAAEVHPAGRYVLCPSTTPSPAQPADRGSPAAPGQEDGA

Tyro3 = target: T3, Tyro3 (Homo sapiens, UniProt Q06418); experiment: Tyro3 kinase inhibition IC50
T3 sequence (Q06418 41-890): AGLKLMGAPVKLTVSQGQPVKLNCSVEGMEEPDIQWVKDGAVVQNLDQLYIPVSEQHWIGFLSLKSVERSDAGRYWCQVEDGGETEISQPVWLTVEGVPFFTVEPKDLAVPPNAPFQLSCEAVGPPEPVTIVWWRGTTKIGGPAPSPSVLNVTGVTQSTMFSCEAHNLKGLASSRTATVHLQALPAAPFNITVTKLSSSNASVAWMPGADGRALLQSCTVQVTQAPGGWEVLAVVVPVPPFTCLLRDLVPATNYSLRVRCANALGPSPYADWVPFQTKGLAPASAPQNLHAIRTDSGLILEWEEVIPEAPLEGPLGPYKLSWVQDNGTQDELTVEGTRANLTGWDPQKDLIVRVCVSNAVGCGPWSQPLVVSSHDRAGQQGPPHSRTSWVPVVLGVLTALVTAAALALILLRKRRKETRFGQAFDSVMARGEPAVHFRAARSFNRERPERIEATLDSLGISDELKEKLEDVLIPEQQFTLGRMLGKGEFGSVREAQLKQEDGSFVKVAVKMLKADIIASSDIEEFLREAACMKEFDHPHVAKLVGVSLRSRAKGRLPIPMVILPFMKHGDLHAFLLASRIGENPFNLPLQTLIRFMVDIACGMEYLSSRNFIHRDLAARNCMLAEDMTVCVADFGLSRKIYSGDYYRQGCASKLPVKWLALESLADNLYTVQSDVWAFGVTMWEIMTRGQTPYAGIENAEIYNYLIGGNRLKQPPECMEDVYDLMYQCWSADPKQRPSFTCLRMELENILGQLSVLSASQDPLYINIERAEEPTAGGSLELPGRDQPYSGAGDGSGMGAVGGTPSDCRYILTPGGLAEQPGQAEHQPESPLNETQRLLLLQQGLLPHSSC

Row | IC50 (Mer; Table 2) [µM] | IC50 (Axl; Table 2) [µM] | IC50 (Tyro3; Table 2, read-out: Tyro3 IC50) [µM] | Compound | also measured
1 | 0.1 to 1 | 1 to 30 | 0.1 to 1 | CN1CC=C(c2ccc(Nc3ncc(-c4ccccn4)c(N[C@H]4CC[C@H](O)CC4)n3)cc2)CC1 [UNC4431A] | 
2 | 0.01 to 0.1 | 0.1 to 1 | 0.1 to 1 | O[C@H]1CC[C@H](Nc2nc(Nc3ccc(C4=CCOCC4)cc3)ncc2-c2ccccn2)CC1 [UNC4434A] | 
3 | 0.1 to 1 | 1 to 30 | 0.1 to 1 | O[C@H]1CC[C@H](Nc2nc(Nc3ccc(C4CCNCC4)cc3)ncc2-c2ccccn2)CC1 [UNC5128A] | 
4 | 0.01 to 0.1 | 0.1 to 1 | 0.1 to 1 | CN1CCCC(c2ccc(Nc3ncc(-c4ccccn4)c(N[C@H]4CC[C@H](O)CC4)n3)cc2)C1 (stereo partly drawn) [UNC5131A] | 
5 | 0.1 to 1 | 1 to 30 | 0.1 to 1 | CN1CCC(c2ccc(Nc3ncc(-c4ccccn4)c(NC4CCOCC4)n3)cc2)CC1 [UNC5134A] | 
6 | 0.01 to 0.1 | 0.1 to 1 | 0.1 to 1 | CC(C)Nc1nc(Nc2ccc(C3CCN(C)CC3)cc2)ncc1-c1ccccn1 [UNC5135A] | 

Continued, compound first:

Row | Compound | IC50 (Mer; Table 2) [µM] | IC50 (Axl; Table 2) [µM] | IC50 (Tyro3; Table 2, read-out: Tyro3 IC50) [µM] | also measured
7 | O[C@H]1CC[C@H](Nc2nc(Nc3ccc(C#Cc4cc(-c5ccncc5)ccn4)cc3)ncc2-c2ccccn2)CC1 [UNC4363A] |  |  |  | IC50 (Mer; Table 4): 0.01 to 0.1 µM; IC50 (Axl; Table 4): 1 to 30 µM; IC50 (Tyro3; Table 4, read-out: Tryo3 IC50): 0.1 to 1 µM
8 | CC(C)Nc1ccnc(C#Cc2ccc(Nc3ncc(-c4ccccn4)c(N[C@H]4CC[C@H](O)CC4)n3)cc2)c1 [UNC4364A] |  |  |  | IC50 (Mer; Table 4): 0.01 to 0.1 µM; IC50 (Axl; Table 4): 0.1 to 1 µM; IC50 (Tyro3; Table 4, read-out: Tryo3 IC50): 0.01 to 0.1 µM
9 | O[C@H]1CC[C@H](Nc2nc(Nc3ccc(C#Cc4cc(Nc5ncco5)ccn4)cc3)ncc2-c2ccccn2)CC1 [UNC4392A] |  |  |  | IC50 (Mer; Table 4): 0.1 to 1 µM; IC50 (Axl; Table 4): 1 to 30 µM; IC50 (Tyro3; Table 4, read-out: Tryo3 IC50): 0.1 to 1 µM
10 | COc1cccc(Oc2ccnc(C#Cc3ccc(Nc4ncc(-c5ccccn5)c(N[C@H]5CC[C@H](O)CC5)n4)cc3)c2)c1 [UNC4393A] |  |  |  | IC50 (Mer; Table 5): 1 to 30 µM; IC50 (Axl; Table 5): 1 to 30 µM; IC50 (Tyro3; Table 5, read-out: Tryo3 IC50): 1 to 30 µM
11 | CC(C)Oc1ccnc(C#Cc2ccc(Nc3ncc(-c4ccccn4)c(N[C@H]4CC[C@H](O)CC4)n3)cc2)c1 [UNC4394A] |  |  |  | IC50 (Mer; Table 5): 0.1 to 1 µM; IC50 (Axl; Table 5): 0.1 to 1 µM; IC50 (Tyro3; Table 5, read-out: Tryo3 IC50): 0.1 to 1 µM
12 | CC(C)N1CCC(=Cc2ccc(-c3cnc(Nc4ccc(F)cc4)nc3N[C@H]3CC[C@H](O)CC3)nc2)CC1 [UNC4397A] |  |  |  | IC50 (Mer; Table 1): < 0.01 µM; IC50 (Axl; Table 1): < 0.01 µM; IC50 (Tyro3; Table 1, read-out: Tyro3 IC50): < 0.01 µM
13 | O[C@H]1CC[C@H](Nc2nc(Nc3ccc(C4=CCNCC4)cc3)ncc2-c2ccccn2)CC1 [UNC4402A] | 0.1 to 1 | 1 to 30 | 0.1 to 1 | 
14 | CC[C@H](N)C(=O)N1CC=C(c2ccc(Nc3ncc(-c4ccccn4)c(N[C@H]4CC[C@H](O)CC4)n3)cc2)CC1 [UNC4403A] | 0.1 to 1 | 1 to 30 | 0.1 to 1 | 
15 | O[C@H]1CC[C@H](Nc2nc(Nc3ccc(-c4cccnc4)cc3)ncc2-c2ccccn2)CC1 [UNC4435A] | 0.1 to 1 | 1 to 30 | 0.1 to 1 | 
16 | CN1CCC(N2CC=C(c3ccc(Nc4ncc(-c5ccccn5)c(N[C@H]5CC[C@H](O)CC5)n4)cc3)CC2)CC1 [UNC5052A] | 0.01 to 0.1 | 0.1 to 1 | 0.1 to 1 | 
17 | O[C@H]1CC[C@H](Nc2nc(Nc3ccc(C4=CCCN(C5CCC5)C4)cc3)ncc2-c2ccccn2)CC1 [UNC5070A] | 0.1 to 1 | 1 to 30 | 0.1 to 1 | 
18 | CN1CCC(N2CCC(c3ccc(Nc4ncc(-c5ccccn5)c(N[C@H]5CC[C@H](O)CC5)n4)cc3)CC2)CC1 [UNC5072A] | 0.01 to 0.1 | 0.1 to 1 | 0.1 to 1 | 
19 | O[C@H]1CC[C@H](Nc2nc(Nc3ccc(C4=CCCNC4)cc3)ncc2-c2ccccn2)CC1 [UNC5113A] | 0.01 to 0.1 | 0.1 to 1 | 0.1 to 1 | 
20 | O[C@H]1CC[C@H](Nc2nc(Nc3ccc(C4CCCNC4)cc3)ncc2-c2ccccn2)CC1 (stereo partly drawn) [UNC5129A] | 0.1 to 1 | 0.1 to 1 | 0.1 to 1 | 
21 | CN1CCC(c2ccc(Nc3ncc(-c4ccccn4)c(N[C@H]4CC[C@H](O)CC4)n3)cc2)CC1 [UNC5130A] | 0.01 to 0.1 | 0.1 to 1 | 0.1 to 1 | 
22 | CN1CCC(c2ccc(Nc3ncc(-c4ccccn4)c(N[C@H]4CC[C@H](C)CC4)n3)cc2)CC1 [UNC5133A] | 0.1 to 1 | 1 to 30 | 0.1 to 1 | 
23 | CNc1nc(Nc2ccc(C3CCN(C)CC3)cc2)ncc1-c1ccccn1 [UNC5136A] | 1 to 30 | 1 to 30 | 1 to 30 | 
